According to paper PMC3724763 (Journal of medicinal chemistry, 2013):

Biological target: T1, JHDM1A (Homo sapiens, UniProt Q9Y2K7)
T1 sequence (Q9Y2K7 1-517): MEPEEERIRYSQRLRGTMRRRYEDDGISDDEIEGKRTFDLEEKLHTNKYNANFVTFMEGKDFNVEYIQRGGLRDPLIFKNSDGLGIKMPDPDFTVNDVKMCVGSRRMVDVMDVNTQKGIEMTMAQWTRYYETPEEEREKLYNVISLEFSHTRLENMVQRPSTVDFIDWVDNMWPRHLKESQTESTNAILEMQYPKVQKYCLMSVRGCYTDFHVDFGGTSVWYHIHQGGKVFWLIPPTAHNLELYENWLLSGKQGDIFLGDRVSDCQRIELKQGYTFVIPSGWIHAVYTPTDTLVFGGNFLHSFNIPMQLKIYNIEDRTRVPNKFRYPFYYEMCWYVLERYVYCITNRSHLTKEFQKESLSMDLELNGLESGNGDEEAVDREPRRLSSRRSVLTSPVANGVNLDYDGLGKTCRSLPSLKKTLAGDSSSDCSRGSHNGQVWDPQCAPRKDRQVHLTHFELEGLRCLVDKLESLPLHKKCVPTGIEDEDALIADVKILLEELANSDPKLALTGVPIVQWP
Experiment: FP competitive binding assay with tracer 3 and JHDM1A
Settings: 60 nM JHDM1A, 1 nM 3, Ni2+ buffer, 4 h

SMILES	displacement of tracer 3 from JHDM1A
O=C(O)/C=C/C(=O)N(O)CCCCNCc1ccc(COC(=O)Nc2cccc3ccccc23)cc1 [Compound 2, methylstat acid]	can displace 3 from JHDM1A
O=C(O)CNC(=O)C(=O)O [NOG, N-oxalyl glycine]	can displace 3 from JHDM1A
O=C(O)CCC(=O)C(=O)O [αKG, α-ketoglutarate]	can displace 3 from JHDM1A
